In ChEMBL document CHEMBL1132563, “Three-dimensional quantitative structure-activity relationship of interleukin 1-beta converting enzyme inhibitors: A comparative molecular field analysis study” (J Med Chem, 1999):

Each molecule was assayed against T1, Caspase-1 (Homo sapiens) (UniProt P29466) (assay: Inhibitory activity against human IL-1 beta converting enzyme from monocytic THP-1 cell line, activity expressed as the logarithm of the second order rate constant for inactivation).
T1 sequence (whole entry): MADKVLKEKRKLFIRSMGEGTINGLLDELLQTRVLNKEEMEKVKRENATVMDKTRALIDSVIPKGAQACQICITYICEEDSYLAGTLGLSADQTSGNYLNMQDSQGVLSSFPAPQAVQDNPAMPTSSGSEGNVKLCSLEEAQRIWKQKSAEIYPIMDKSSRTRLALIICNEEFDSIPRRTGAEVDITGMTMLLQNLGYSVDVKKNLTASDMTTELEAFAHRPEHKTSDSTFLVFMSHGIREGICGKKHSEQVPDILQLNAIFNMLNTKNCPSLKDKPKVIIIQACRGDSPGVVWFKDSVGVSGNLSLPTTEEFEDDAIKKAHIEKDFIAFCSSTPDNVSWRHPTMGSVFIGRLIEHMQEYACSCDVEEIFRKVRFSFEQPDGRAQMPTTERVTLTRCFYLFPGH
Type: cell-based

SMILES	Activity
O=C(O)C[C@H](NC(=O)OCc1ccccc1)C(=O)COP(=O)(Oc1ccccc1)Oc1ccccc1	4.07
O=C(O)C[C@H](NC(=O)OCc1ccccc1)C(=O)COc1cc(C(F)(F)F)nn1-c1ccccc1	4.04
CC(C)[C@H](NC(=O)OCc1ccccc1)C(=O)N[C@@H](C)C(=O)N[C@@H](CC(=O)O)C(=O)COc1cc(C(F)(F)F)nn1-c1ccccc1	5.45
CC(C)[C@H](NC(=O)OCc1ccccc1)C(=O)N[C@@H](C)C(=O)N[C@@H](CC(=O)O)C(=O)COP(=O)(Oc1ccc(Cl)cc1)Oc1ccc(Cl)cc1	5.36
CC(C)[C@H](NC(=O)CCc1ccccc1)C(=O)N[C@@H](C)C(=O)N[C@@H](CC(=O)O)C(=O)COC(=O)c1c(O)cccc1O	5.85
CC(C)[C@H](NC(=O)OCc1ccccc1)C(=O)N[C@@H](C)C(=O)N(C)[C@@H](CC(=O)O)C(=O)COc1cc(C(F)(F)F)nn1-c1ccccc1	2.48
O=C(O)CC(NC(=O)Cn1c(-c2ccc(F)cc2)ncc(NC(=O)OCc2ccccc2)c1=O)C(=O)COP(=O)(Oc1ccccc1)Oc1ccccc1 (centres undefined)	5.16
C=CCOC(=O)N[C@@H](CC(=O)O)C(=O)COC(=O)c1c(C(F)(F)F)cccc1C(F)(F)F	3.72
C=CCOC(=O)N[C@@H](CC(=O)O)C(=O)COC(=O)c1c(F)c(F)c(F)c(F)c1F	2.99
C[C@H](NC(=O)[C@H](Cc1ccccc1)NC(=O)OCc1ccccc1)C(=O)COP(=O)(Oc1ccccc1)Oc1ccccc1	2.7
CC(C)[C@H](NC(=O)OCc1ccccc1)C(=O)N[C@@H](CC(=O)O)C(=O)COP(=O)(Oc1ccccc1)Oc1ccccc1	4.7
O=C(O)CC(NC(=O)Cn1c(-c2cccs2)ncc(NC(=O)OCc2ccccc2)c1=O)C(=O)COC(=O)c1c(Cl)cccc1Cl (centres undefined)	5.43
CC(C)[C@H](NC(=O)OCc1ccccc1)C(=O)N[C@@H](CC(=O)O)C(=O)COP(=O)(Oc1ccc(Cl)cc1)Oc1ccc(Cl)cc1	4.89
CC(C)[C@H](NC(=O)OCc1ccccc1)C(=O)N[C@@H](C)C(=O)N[C@@H](CC(=O)O)C(=O)COP(=O)(Oc1ccccc1)Oc1ccccc1	5.07
C=CCOC(=O)N[C@@H](CC(=O)O)C(=O)COC(=O)c1ccc([N+](=O)[O-])cc1	1.79
CC(C)C[C@H](NC(=O)OCc1ccccc1)C(=O)N[C@@H](Cc1ccccc1)C(=O)COP(=O)(Oc1ccccc1)Oc1ccccc1	2.7
CC(C)[C@H](NC(=O)CCc1ccccc1)C(=O)N[C@@H](C)C(=O)N[C@@H](CC(=O)O)C(=O)COC(=O)c1c(C(F)(F)F)cccc1C(F)(F)F	5.95
CC(C)[C@@H](C(=O)N[C@@H](C)C(=O)N[C@@H](CC(=O)O)C(=O)COc1cc(C(F)(F)F)nn1-c1ccccc1)N(C)C(=O)OCc1ccccc1	3.93

Continued, values first:

Activity	SMILES
6.08	Cc1cccc(C)c1C(=O)OCC(=O)[C@H](CC(=O)O)NC(=O)[C@H](C)NC(=O)[C@@H](NC(=O)CCc1ccccc1)C(C)C
5.43	CC(C)[C@H](NC(=O)OCc1ccccc1)C(=O)N1CCCCC1C(=O)N[C@H](CC(=O)O)C(=O)COc1cc(C(F)(F)F)nn1-c1ccccc1 (some centres undefined)
6.04	CC(C)[C@H](NC(=O)CCc1ccccc1)C(=O)N[C@@H](C)C(=O)N[C@@H](CC(=O)O)C(=O)COC(=O)c1c(F)c(F)c(F)c(F)c1F
3.85	O=C(O)C[C@H](NC(=O)OCc1ccccc1)C(=O)COC(=O)c1c(Cl)cccc1Cl
6.04	CC(=O)N[C@@H](Cc1ccc(O)cc1)C(=O)N[C@H](C(=O)N[C@@H](C)C(=O)N[C@@H](CC(=O)O)C(=O)COC(=O)c1c(C)cccc1C)C(C)C
4.56	Nc1cnc(-c2ccc(F)cc2)n(CC(=O)NC(CC(=O)O)C(=O)COC(=O)c2c(Cl)cccc2Cl)c1=O (centres undefined)
4.98	Cc1ncc(NC(=O)OCc2ccccc2)c(=O)n1CC(=O)NC(CC(=O)O)C(=O)COc1cc(C(F)(F)F)nn1-c1ccccc1 (centres undefined)
5.98	CC(=O)N[C@@H](Cc1ccc(O)cc1)C(=O)N[C@H](C(=O)N[C@@H](C)C(=O)N[C@@H](CC(=O)O)C(=O)COC(=O)c1c(C(F)(F)F)cccc1C(F)(F)F)C(C)C
5.43	O=C(O)CC(NC(=O)Cn1c(-c2ccc(F)cc2)ncc(NC(=O)OCc2ccccc2)c1=O)C(=O)COC(=O)c1c(Cl)cccc1Cl (centres undefined)
4.95	O=C(O)CC(NC(=O)Cn1c(-c2ccc(F)cc2)ncc(NS(=O)(=O)c2ccccc2)c1=O)C(=O)COC(=O)c1c(Cl)cccc1Cl (centres undefined)
4.3	CC(C)[C@H](NC(=O)OCc1ccccc1)C(=O)N[C@@H](CC(=O)O)C(=O)COc1cc(C(F)(F)F)nn1-c1ccccc1
2.91	C=CCOC(=O)N[C@@H](CC(=O)O)C(=O)COC(=O)c1c(C)cccc1C
3.43	C=CCOC(=O)N[C@@H](CC(=O)O)C(=O)COC(=O)c1c(O)cccc1O
2.48	CC(C)[C@H](NC(=O)[C@@H]1CCCN1C(=O)OCc1ccccc1)C(=O)N[C@@H](CC(=O)O)C(=O)COc1cc(C(F)(F)F)nn1-c1ccccc1
5.2	O=C(O)CC(NC(=O)Cn1c(-c2ccc(F)cc2)ncc(NC(=O)OCc2ccccc2)c1=O)C(=O)COc1cc(C(F)(F)F)nn1-c1ccccc1 (centres undefined)
5.45	CC(C)[C@H](NC(=O)CCc1ccccc1)C(=O)N[C@@H](C)C(=O)N[C@@H](CC(=O)O)C(=O)COC(=O)c1ccccc1
4.66	O=C(O)CC(NC(=O)Cn1c(-c2ccc(F)cc2)ncc(NC(=O)c2ccco2)c1=O)C(=O)COC(=O)c1c(Cl)cccc1Cl (centres undefined)
5.16	O=C(O)CC(NC(=O)Cn1c(-c2cccnc2)ncc(NC(=O)OCc2ccccc2)c1=O)C(=O)COc1cc(C(F)(F)F)nn1-c1ccccc1 (centres undefined)
5.17	O=C(O)CC(NC(=O)Cn1c(-c2ccc(F)cc2)ncc(NC(=O)NCc2ccccc2)c1=O)C(=O)COC(=O)c1c(Cl)cccc1Cl (centres undefined)
6.11	CC(C)[C@H](NC(=O)CCc1ccccc1)C(=O)N[C@@H](C)C(=O)N[C@@H](CC(=O)O)C(=O)COC(=O)c1ccc([N+](=O)[O-])cc1
5.06	CC(C)[C@H](NC(=O)OCc1ccccc1)C(=O)N1CCC[C@H]1C(=O)N[C@@H](CC(=O)O)C(=O)COc1cc(C(F)(F)F)nn1-c1ccccc1
5.37	CC(C)[C@H](NC(=O)OCc1ccccc1)C(=O)N(C)[C@@H](C)C(=O)N[C@@H](CC(=O)O)C(=O)COc1cc(C(F)(F)F)nn1-c1ccccc1
2.7	C[C@H](NC(=O)[C@H](Cc1ccccc1)NC(=O)OCc1ccccc1)C(=O)COc1cc(C(F)(F)F)nn1-c1ccccc1
2.7	C[C@H](NC(=O)[C@H](Cc1ccccc1)NC(=O)OCc1ccccc1)C(=O)COC(=O)c1c(Cl)cccc1Cl
4.95	CN(C)CCCCCC(=O)Nc1cnc(-c2ccc(F)cc2)n(CC(=O)NC(CC(=O)O)C(=O)COC(=O)c2c(Cl)cccc2Cl)c1=O (centres undefined)
5.61	CC(C)[C@H](NC(=O)OCc1ccccc1)C(=O)N[C@@H](C)C(=O)N[C@@H](CC(=O)O)C(=O)COC(=O)c1c(Cl)cccc1Cl
